Source: paper doi:10.1101/2022.05.23.493001v4 (biorxiv, 2022)

Tested on: STING in THP-1 cells (endogenous)
Assay: cells
Details: Homo sapiens, THP-1, 6 h, read-out: EC50 IFN-β THP-1

SMILES: CSc1c(Cl)ccc2c(=O)c3ccc(C(C)(C)C)cc3n(CC(=O)O)c12 [SNX281]
- EC50: 6.6 µM
